In article PMC11579512, “Deoxybouvardin-glucoside induces apoptosis in non-small cell lung cancer cells by targeting EGFR/MET and AKT signaling pathway” (EXCLI Journal, 2024):

Key:
HCC827GR cells = experiment: MTT viability after NAC pretreatment, HCC827GR; format: cell-based, human; settings: for cell viability (relative to untreated = 100.00): HCC827GR
Description: All culture media were supplemented with FBS (10 %) and P/S (1 %), and the cells were grown at 37 °C in 5 % CO2.
The cells were treated with MTT and incubated for 2 h. The supernatants were removed, and the remaining formazan crystals were dissolved in DMSO before absorbance measurement at 570 nm using a Multiscan GO spectrophotometer (Thermo Fisher Scientific, Vantaa, Finland).

AKT1 = target: T1, AKT1 (Homo sapiens, UniProt P31749); experiment: In vitro ADP-Glo kinase assay, AKT1; format: biochemical
T1 construct: purchased Promega
Description: (§1) Subsequently, each well was added with ADP-Glo reagent and incubated for another 40 min. After completion of the kinase reaction, each well was added with kinase activity detection reagent and then incubated for 30 min. Liquid was dispensed with I.DOT (Dispendix, Stuttgart, Germany). Luminescence was measured on a Centro LB 960 microplate luminometer (Berthold Technologies).

p-MET = experiment: Immunoblot p-MET with NAC pretreatment, HCC827 and HCC827GR cells; format: cell-based, human; settings: for p-MET protein Ratio: control = 1.00
Description: (§2) HaCaT cells were grown in DMEM, whereas HCC827 and HCC827GR cells were grown in RPMI 1640. All culture media were supplemented with FBS (10 %) and P/S (1 %), and the cells were grown at 37 °C in 5 % CO2.
(§3) Cells were lysed in RIPA buffer, and protein concentration was determined using a Bio-Rad DC Protein Assay kit (Bio-Rad, Hercules, CA, USA). Protein samples from the cell lysates were resolved by sodium dodecyl sulfate-polyacrylamide gel electrophoresis and then transferred onto polyvinylidene fluoride membranes. The membranes were blocked with 3 % or 5 % skim milk and then incubated at 4 °C overnight with the indicated primary antibodies, followed by the corresponding horseradish peroxidase-conjugated secondary antibodies at RT for 2 h. Protein bands were visualized using western blotting luminol reagent solution and ImageQuant LAS 500 (GE Healthcare, Uppsala, Sweden). The density of the bands was quantified using ImageJ software (NIH, Bethesda, MD, USA).

p-MET (Y1234/1235) = experiment: Western blot p-MET (Y1234/1235) in HCC827 and HCC827GR cells; format: cell-based, human; settings: DBG 3, 6, 12 nM, 48 h
Description: as §2, §3

MET = target: T2, MET (Homo sapiens, UniProt P08581); experiment: In vitro ADP-Glo kinase assay, MET; format: biochemical
T2 construct: purchased Promega
Description: as §1

HCC827 cells [1] = experiment: Multi-caspase assay, HCC827; format: cell-based, human; design: Caspase+ cells / Total Caspase+ cells / dead cells (multi-caspase assay) / Live cells (multi-caspase assay): unit not given here; settings: for cells with activated caspases: 48 h, background 6.52 %
Description: as §2

cyclin D1 = experiment: Immunoblot cyclin D1 in HCC827 and HCC827GR cells; format: cell-based, human; settings: for cyclinD1 protein ratio: relative to DBG 0 nM = 1.00
Description: as §2, §3

HCC827 cells [2] = experiment: Intracellular ROS (Muse Oxidative Stress Kit), HCC827; format: cell-based, human; settings: 48 h, control 7.32 %
Description: as §2
The levels of intracellular ROS were measured using a Muse™ Oxidative Stress Kit (MCH100111, Merck Millipore) in accordance with the manufacturer's instructions. The cells were incubated with a Muse™ Oxidative Stress Reagent working solution in the dark at 37 °C for 30 min. Intracellular ROS generation was measured using a Muse™ Cell Analyzer.

[3] = HCC827, DBG 3 nM, mean of samples 1-3
[4] = HCC827, DBG 6 nM, mean of samples 1-3
[5] = HCC827, DBG 12 nM, mean of samples 1-3

T2 sequence (P08581 25-1390): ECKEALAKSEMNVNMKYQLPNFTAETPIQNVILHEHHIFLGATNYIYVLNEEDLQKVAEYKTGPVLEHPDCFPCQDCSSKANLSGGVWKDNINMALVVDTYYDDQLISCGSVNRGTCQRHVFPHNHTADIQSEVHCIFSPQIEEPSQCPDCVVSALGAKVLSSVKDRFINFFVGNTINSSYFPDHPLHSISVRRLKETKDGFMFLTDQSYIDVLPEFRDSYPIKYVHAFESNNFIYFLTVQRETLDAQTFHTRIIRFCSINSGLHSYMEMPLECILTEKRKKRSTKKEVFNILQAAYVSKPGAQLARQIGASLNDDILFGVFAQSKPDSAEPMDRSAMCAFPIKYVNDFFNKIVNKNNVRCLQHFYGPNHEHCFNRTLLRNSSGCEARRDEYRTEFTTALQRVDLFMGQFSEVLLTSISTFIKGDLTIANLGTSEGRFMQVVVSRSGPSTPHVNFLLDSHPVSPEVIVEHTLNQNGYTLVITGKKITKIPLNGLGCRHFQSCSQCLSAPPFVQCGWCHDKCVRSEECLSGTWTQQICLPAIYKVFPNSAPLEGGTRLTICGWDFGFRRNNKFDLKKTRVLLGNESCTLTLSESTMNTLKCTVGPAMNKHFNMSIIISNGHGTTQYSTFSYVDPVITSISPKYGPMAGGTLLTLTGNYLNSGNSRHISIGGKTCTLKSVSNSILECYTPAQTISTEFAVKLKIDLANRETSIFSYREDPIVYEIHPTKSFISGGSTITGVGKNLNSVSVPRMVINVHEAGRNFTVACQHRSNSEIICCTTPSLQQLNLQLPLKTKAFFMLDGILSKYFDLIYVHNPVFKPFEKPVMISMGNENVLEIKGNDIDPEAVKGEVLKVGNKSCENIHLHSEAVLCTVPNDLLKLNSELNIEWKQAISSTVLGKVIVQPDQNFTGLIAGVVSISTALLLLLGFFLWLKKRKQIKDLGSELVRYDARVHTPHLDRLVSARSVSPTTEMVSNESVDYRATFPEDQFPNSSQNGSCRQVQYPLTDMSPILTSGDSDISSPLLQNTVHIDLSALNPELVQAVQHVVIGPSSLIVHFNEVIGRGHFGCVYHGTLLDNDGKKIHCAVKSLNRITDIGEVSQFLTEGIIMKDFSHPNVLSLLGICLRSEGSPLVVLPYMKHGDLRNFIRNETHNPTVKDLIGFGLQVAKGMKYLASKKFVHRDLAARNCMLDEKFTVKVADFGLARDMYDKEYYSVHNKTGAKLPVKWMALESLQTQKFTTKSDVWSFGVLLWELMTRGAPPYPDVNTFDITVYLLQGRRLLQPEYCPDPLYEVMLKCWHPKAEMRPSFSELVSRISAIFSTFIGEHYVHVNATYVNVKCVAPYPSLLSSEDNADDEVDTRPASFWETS
T1 sequence (P31749 whole entry): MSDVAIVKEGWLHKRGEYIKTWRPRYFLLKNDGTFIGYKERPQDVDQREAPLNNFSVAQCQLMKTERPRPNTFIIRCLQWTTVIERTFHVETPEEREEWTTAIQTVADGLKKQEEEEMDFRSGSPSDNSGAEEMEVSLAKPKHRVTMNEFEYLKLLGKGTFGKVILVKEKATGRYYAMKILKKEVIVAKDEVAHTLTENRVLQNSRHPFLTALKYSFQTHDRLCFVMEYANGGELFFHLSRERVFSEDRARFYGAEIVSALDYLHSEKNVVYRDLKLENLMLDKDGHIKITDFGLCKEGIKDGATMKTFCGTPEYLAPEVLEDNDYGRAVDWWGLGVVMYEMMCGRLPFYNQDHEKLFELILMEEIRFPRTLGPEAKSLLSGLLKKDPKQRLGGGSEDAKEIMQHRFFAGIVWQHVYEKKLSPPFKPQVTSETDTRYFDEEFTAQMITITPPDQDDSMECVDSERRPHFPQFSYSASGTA

## COc1ccc(C[C@H]2C(=O)N[C@@H](C)C(=O)N(C)[C@H]3Cc4ccc(cc4)Oc4cc(ccc4O[C@@H]4O[C@H](CO)[C@@H](O)[C@H](O)[C@H]4O)C[C@@H](C(=O)N[C@H](C)C(=O)N[C@@H](C)C(=O)N2C)N(C)C3=O)cc1 [DBG, deoxybouvardin glucoside]
HCC827GR cells; DBG 12 nM, mean of 3
  cell viability (relative to untreated = 100.00): 38.91
HCC827GR cells; DBG 12 nM, replicate 1
  cell viability (relative to untreated = 100.00): 39.88
HCC827GR cells; DBG 12 nM, replicate 2
  cell viability (relative to untreated = 100.00): 38.76
HCC827GR cells; DBG 12 nM, replicate 3
  cell viability (relative to untreated = 100.00): 38.08
HCC827GR cells; NAC 4 mM + DBG 12 nM, mean of 3
  cell viability (relative to untreated = 100.00): 99.25
HCC827GR cells; NAC 4 mM + DBG 12 nM, replicate 1
  cell viability (relative to untreated = 100.00): 100.78
HCC827GR cells; NAC 4 mM + DBG 12 nM, replicate 2
  cell viability (relative to untreated = 100.00): 98.32
HCC827GR cells; NAC 4 mM + DBG 12 nM, replicate 3
  cell viability (relative to untreated = 100.00): 98.66
HCC827GR cells; NAC 4 mM, 3 h, DBG 48 h
  anticancer activity of DBG after NAC pretreatment: decreased
HCC827GR cells; NAC 4 mM, DBG 12 nM
  cytotoxicity after NAC pretreatment: a little, if any, cytotoxicity only at 12 nM
AKT1; ADP-Glo, AKT1 10 ng, RT, 60 min, luminescence, n=3
  IC50: 6.86 nM
AKT1; DBG 3, 6, 12 nM
  kinase activity, in words: significantly inhibited
p-MET; HCC827, DBG 12 nM, control 1.17
  p-MET protein/actin: 0.27
p-MET; HCC827, DBG 12 nM
  p-MET protein Ratio: 0.23
p-MET; HCC827, NAC 4 mM + DBG 12 nM, control 1.17
  p-MET protein/actin: 0.40
p-MET; HCC827, NAC 4 mM + DBG 12 nM
  p-MET protein Ratio: 0.34
p-MET; HCC827GR, DBG 12 nM, control 1.14
  p-MET protein/actin: 0.44
p-MET; HCC827GR, DBG 12 nM
  p-MET protein Ratio: 0.39
p-MET; HCC827GR, NAC 4 mM + DBG 12 nM, control 1.14
  p-MET protein/actin: 0.21
p-MET; HCC827GR, NAC 4 mM + DBG 12 nM
  p-MET protein Ratio: 0.18
p-MET; NAC 4 mM pretreatment, DBG 48 h
  DBG-decreased phosphorylation of MET with NAC: did not change
p-MET (Y1234/1235)
  phosphorylation level of MET: decreased
MET; ADP-Glo, MET 4 ng, RT, 60 min, luminescence, n=3
  IC50: 7.26 nM
MET; DBG 3, 6, 12 nM
  kinase activity, in words: significantly inhibited
HCC827 cells [1]; DBG 3 nM
  cells with activated caspases: 16.23%
HCC827 cells [1]; DBG 6 nM
  cells with activated caspases: 24.10%
HCC827 cells [1]; DBG 12 nM
  cells with activated caspases: 25.94%
HCC827 cells [1]; [3]
  Caspase+ cells: 4.43
  Caspase+/dead cells: 11.80
  Live cells (multi-caspase assay): 83.72
  Total Caspase+ cells: 16.23
  dead cells (multi-caspase assay): 0.05
HCC827 cells [1]; HCC827, DBG 3 nM, sample 1
  Caspase+ cells: 5.19
  Caspase+/dead cells: 10.83
  Live cells (multi-caspase assay): 83.88
  Total Caspase+ cells: 16.02
  dead cells (multi-caspase assay): 0.10
HCC827 cells [1]; HCC827, DBG 3 nM, sample 2
  Caspase+ cells: 3.91
  Caspase+/dead cells: 12.71
  Live cells (multi-caspase assay): 83.38
  Total Caspase+ cells: 16.62
  dead cells (multi-caspase assay): 0.00
HCC827 cells [1]; HCC827, DBG 3 nM, sample 3
  Caspase+ cells: 4.20
  Caspase+/dead cells: 11.85
  Live cells (multi-caspase assay): 83.89
  Total Caspase+ cells: 16.06
  dead cells (multi-caspase assay): 0.05
HCC827 cells [1]; [4]
  Caspase+ cells: 9.84
  Caspase+/dead cells: 14.26
  Live cells (multi-caspase assay): 75.85
  Total Caspase+ cells: 24.10
  dead cells (multi-caspase assay): 0.00
HCC827 cells [1]; HCC827, DBG 6 nM, sample 1
  Caspase+ cells: 10.64
  Caspase+/dead cells: 13.33
  Live cells (multi-caspase assay): 76.03
  Total Caspase+ cells: 23.97
  dead cells (multi-caspase assay): 0.00
HCC827 cells [1]; HCC827, DBG 6 nM, sample 2
  Caspase+ cells: 9.67
  Caspase+/dead cells: 14.53
  Live cells (multi-caspase assay): 75.65
  Total Caspase+ cells: 24.20
  dead cells (multi-caspase assay): 0.00
HCC827 cells [1]; HCC827, DBG 6 nM, sample 3
  Caspase+ cells: 9.21
  Caspase+/dead cells: 14.92
  Live cells (multi-caspase assay): 75.87
  Total Caspase+ cells: 24.13
  dead cells (multi-caspase assay): 0.00
HCC827 cells [1]; [5]
  Caspase+ cells: 16.76
  Caspase+/dead cells: 9.18
  Live cells (multi-caspase assay): 73.91
  Total Caspase+ cells: 25.94
  dead cells (multi-caspase assay): 0.08
HCC827 cells [1]; HCC827, DBG 12 nM, sample 1
  Caspase+ cells: 17.38
  Caspase+/dead cells: 9.37
  Live cells (multi-caspase assay): 73.00
  Total Caspase+ cells: 26.75
  dead cells (multi-caspase assay): 0.05
HCC827 cells [1]; HCC827, DBG 12 nM, sample 2
  Caspase+ cells: 16.62
  Caspase+/dead cells: 9.35
  Live cells (multi-caspase assay): 73.88
  Total Caspase+ cells: 25.97
  dead cells (multi-caspase assay): 0.15
HCC827 cells [1]; HCC827, DBG 12 nM, sample 3
  Caspase+ cells: 16.27
  Caspase+/dead cells: 8.82
  Live cells (multi-caspase assay): 74.86
  Total Caspase+ cells: 25.09
  dead cells (multi-caspase assay): 0.05
Cyclin D1; DBG 3, 6, 12 nM, 48 h
  level of cyclin D1: significantly decreased
Cyclin D1; HCC827, DBG 3 nM, DBG 0 nM 0.51
  cyclinD1 protein/actin: 0.23
Cyclin D1; HCC827, DBG 3 nM
  cyclinD1 protein ratio: 0.46
Cyclin D1; HCC827, DBG 6 nM, DBG 0 nM 0.51
  cyclinD1 protein/actin: 0.14
Cyclin D1; HCC827, DBG 6 nM
  cyclinD1 protein ratio: 0.27
Cyclin D1; HCC827, DBG 12 nM, DBG 0 nM 0.51
  cyclinD1 protein/actin: 0.09
Cyclin D1; HCC827, DBG 12 nM
  cyclinD1 protein ratio: 0.17
Cyclin D1; HCC827GR, DBG 3 nM, DBG 0 nM 0.73
  cyclinD1 protein/actin: 0.37
Cyclin D1; HCC827GR, DBG 3 nM
  cyclinD1 protein ratio: 0.51
Cyclin D1; HCC827GR, DBG 6 nM, DBG 0 nM 0.73
  cyclinD1 protein/actin: 0.33
Cyclin D1; HCC827GR, DBG 6 nM
  cyclinD1 protein ratio: 0.45
Cyclin D1; HCC827GR, DBG 12 nM, DBG 0 nM 0.73
  cyclinD1 protein/actin: 0.41
Cyclin D1; HCC827GR, DBG 12 nM
  cyclinD1 protein ratio: 0.57
HCC827 cells [2]; DBG 3 nM
  ROS level: 18.40%
HCC827 cells [2]; DBG 6 nM
  ROS level: 47.32%
HCC827 cells [2]; DBG 12 nM
  ROS level: 70.22%
